The target in one assay is LXR β LBD protein (Homo sapiens (Human), UniProt P55055). Put plainly: biochemical. The class given is binding.
The target in assay [1] is Gal4 DNA binding domain fused to the LBD of LXRα in HEK293 cells (Homo sapiens (Human), UniProt Q13133). The assay is described as follows: LXR luciferase transcriptional reporter gene assay, agonist mode, LXRα. The class given is cell-based. Conditions: for EC50: read-out: Cell LXRα EC50.
Assay [2] deals with Gal4 DNA binding domain fused to the LBD of LXRβ in HEK293 cells (Homo sapiens (Human), UniProt P55055). The assay is described as follows: cell-based. The following applies: for Cell LXRβ efficacy: agonist mode.

Like-named read-outs stand apart in the source and are kept apart here. Some results are limits rather than exact numbers.

Chain of Gal4 DNA binding domain fused to the LBD of LXRα in HEK293 cells (Q13133 209-447): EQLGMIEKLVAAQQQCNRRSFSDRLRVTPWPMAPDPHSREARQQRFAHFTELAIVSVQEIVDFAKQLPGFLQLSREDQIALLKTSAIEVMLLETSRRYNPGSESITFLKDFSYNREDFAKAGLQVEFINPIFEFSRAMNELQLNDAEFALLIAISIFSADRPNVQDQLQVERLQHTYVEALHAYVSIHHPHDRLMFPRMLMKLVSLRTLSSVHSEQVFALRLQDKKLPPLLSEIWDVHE
Chain of Gal4 DNA binding domain fused to the LBD of LXRβ in HEK293 cells (P55055 222-460 limits assumed): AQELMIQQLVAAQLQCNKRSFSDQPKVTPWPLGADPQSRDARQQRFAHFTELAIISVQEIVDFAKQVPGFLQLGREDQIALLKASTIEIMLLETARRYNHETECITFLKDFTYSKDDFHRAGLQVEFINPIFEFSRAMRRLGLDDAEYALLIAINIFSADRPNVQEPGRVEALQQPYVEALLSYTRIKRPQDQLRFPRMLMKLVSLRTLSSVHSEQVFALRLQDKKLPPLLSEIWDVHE
Chain of LXR β LBD protein (P55055 222-460 limits assumed): as above

Turning to `C=C(C)c1cnc(N2CCN(c3ccc(CO)c(S(C)(=O)=O)c3)C[C@H]2C(C)C)nc1C(F)(F)F` [14-2, (R)-(4-(3-isopropyl-4-(5-(prop-1-en-2-yl)-4-(trifluoromethyl)pyrimidin-2-yl)piperazin-1-yl)-2-(methylsulfonyl)phenyl)methanol], the Ki – broadly, the dissociation constant of the complex between target and ligand, obtained from inhibition or displacement – at LXR β LBD protein (read-out: LXRβ Binding Ki) was 0.001 µM. Also, the “Cell LXRα efficacy” value in assay [1] is 186 (63) %. The EC50 – broadly, the concentration needed to bring the measured effect to its halfway point – in assay [1] (agonist mode) was 0.186 µM. For the same compound, in assay [2], the midpoint of the response, the EC50, lay at 0.028 µM and the “Cell LXRβ efficacy” value is recorded as 28 (42) %.

Consider `CSCc1cnc(N2CCN(c3ccc(F)c(S(C)(=O)=O)c3)C[C@H]2C(C)C)nc1C(F)(F)F` [15-8, (R)-2-(4-(4-fluoro-3-(methylsulfonyl)phenyl)-2-isopropylpiperazin-1-yl)-5-((methylthio)methyl)-4-(trifluoromethyl)pyrimidine], for which the Ki on LXR β LBD protein (read-out: LXRβ Binding Ki) was 0.001 µM. In addition, the “Cell LXRα efficacy” value in assay [1] is reported as 219 (44) %. The EC50 in assay [1] (agonist mode) amounted to 0.219 µM. For the same compound, in assay [2], the EC50 was found to be 0.034 µM and the “Cell LXRβ efficacy” value is 34 (35) %.

As for `CC(C)[C@@H]1CN(c2ccc(F)c(S(C)(=O)=O)c2)CCN1c1ncc(C(=O)N2CC(N)C2)c(C(F)(F)F)n1` [17-4, (R)-(3-aminoazetidin-1-yl)(2-(4-(4-fluoro-3-(methylsulfonyl)phenyl)-2-isopropylpiperazin-1-yl)-4-(trifluoromethyl)pyrimidin-5-yl)methanone], the Ki on LXR β LBD protein (read-out: LXRβ Binding Ki) was determined as 0.512 µM. In assay [1] (agonist mode), the EC50 was greater than 20 µM. Besides, in assay [2], a half-maximal effect (EC50) was put at 0.833 µM and the “Cell LXRβ efficacy” value is 833 (6) %.

As to `CC(C)[C@@H]1CN(c2ccc(F)c(S(C)(=O)=O)c2)CCN1c1ncc(C(=O)N2CC(O)C2)c(C(F)(F)F)n1` [17-5, (R)-(2-(4-(4-fluoro-3-(methylsulfonyl)phenyl)-2-isopropylpiperazin-1-yl)-4-(trifluoromethyl)pyrimidin-5-yl)(3-hydroxyazetidin-1-yl)methanone], on LXR β LBD protein (read-out: LXRβ Binding Ki), the inhibition constant Ki came to 0.396 µM. Moreover, the EC50 in assay [1] (agonist mode) and in assay [2] was greater than 20 µM throughout.

With `CC(C)[C@@H]1CN(c2ccc(F)c(S(C)(=O)=O)c2)CCN1c1ncc(C(=O)NC2CN(C(=O)OC(C)(C)C)C2)c(C(F)(F)F)n1` [17-20, tert-butyl (R)-3-(2-(4-(4-fluoro-3-(methylsulfonyl)phenyl)-2-isopropylpiperazin-1-yl)-4-(trifluoromethyl)pyrimidine-5-carboxamido)azetidine-1-carboxylate], on LXR β LBD protein (read-out: LXRβ Binding Ki), the Ki was 0.33 µM. The EC50 in assay [1] (agonist mode) and in assay [2] was greater than 20 µM in each case.

Turning to `CC(C)[C@@H]1CN(c2ccc(F)c(S(C)(=O)=O)c2)CCN1c1ncc(C(=O)N2CC(NC(=O)OC(C)(C)C)C2)c(C(F)(F)F)n1` [17-21, tert-butyl (R)-(1-(2-(4-(4-fluoro-3-(methylsulfonyl)phenyl)-2-isopropylpiperazin-1-yl)-4-(trifluoromethyl)pyrimidine-5-carbonyl)azetidin-3-yl)carbamate], at LXR β LBD protein (read-out: LXRβ Binding Ki), the Ki was 0.111 µM. Besides, the EC50 in assay [1] (agonist mode) and in assay [2] was greater than 20 µM each time.

Regarding `CON(C)C(=O)c1cnc(N2CCN(c3ccc(F)c(S(C)(=O)=O)c3)C[C@H]2c2ccc(F)cc2)nc1C(F)(F)F` [17-32, (R)-2-(4-(4-fluoro-3-(methylsulfonyl)phenyl)-2-(4-fluorophenyl)piperazin-1-yl)-N-methoxy-N-methyl-4-(trifluoromethyl)pyrimidine-5-carboxamide], at LXR β LBD protein, affinity was put at a Ki of 0.435 µM. Moreover, the 50% effective concentration (EC50) in assay [1] (agonist mode) and in assay [2] was greater than 20 µM each time.

Consider `C[C@@H](c1ccc(C(F)(F)F)cc1)N1CCN(c2cccc(S(C)(=O)=O)c2)C[C@@H]1c1ccccc1` [46-16, (S)-4-(3-(methylsulfonyl)phenyl)-2-phenyl-1-((S)-1-(4-(trifluoromethyl)phenyl)ethyl)piperazine], for which the Ki on LXR β LBD protein amounted to 0.503 µM. For the same compound, the 50% effective concentration (EC50) in assay [1] and in assay [2] was greater than 20 µM in each case.
